Assay results published in patent publication US4378348A (priority 1979, dated 1983).

Test: in vivo
Conditions: mouse, iv
From the text: The substance of this invention was intravenously administered to male mice of DD strain weighing 20 to 21 g and checked for acute toxicity.

## CN[C@H](CC(C)C)C(=O)N[C@H]1C(=O)N[C@@H](CC(N)=O)C(=O)N[C@H]2C(=O)N[C@H]3C(=O)N[C@H](C(=O)N[C@H](C(=O)O)c4cc(O)cc(O)c4-c4cc3ccc4O)[C@H](O)c3ccc(c(Cl)c3)Oc3cc2cc(c3O[C@@H]2O[C@H](CO)[C@@H](O)[C@H](O)[C@H]2O[C@H]2C[C@](C)(N)[C@H](O)[C@H](C)O2)Oc2ccc(cc2Cl)[C@H]1O [vancomycin]
  LD50: 400 to 500 mg/kg
